The kinase profiling compilation of Christmann-Franck et al. (2016)

Experiments:
Assay in all cases: KINOMEscan competition binding
Settings in all cases: compound 10.0 µM
ACVR2B (human) = ACVR2B (human) (UniProt Q13705)
AKT2 (human) = AKT2 (human) (UniProt P31751)
AKT3 (human) = AKT3 (human) (UniProt Q9Y243)
BTK (human) = BTK (human) (UniProt Q06187)
CASK (human) = CASK (human) (UniProt O14936)
CDK15 (human) = CDK15 (human) (UniProt Q96Q40)
CDKL5 (human) = CDKL5 (human) (UniProt O76039)
CSK (human) = CSK (human) (UniProt P41240)
CSNK1D (human) = CSNK1D (human) (UniProt P48730)
DMPK (human) = DMPK (human) (UniProt Q09013)
EGFR (human) = EGFR (human) (UniProt P00533)
Chain of EGFR (human) (P00533 whole entry, looked up): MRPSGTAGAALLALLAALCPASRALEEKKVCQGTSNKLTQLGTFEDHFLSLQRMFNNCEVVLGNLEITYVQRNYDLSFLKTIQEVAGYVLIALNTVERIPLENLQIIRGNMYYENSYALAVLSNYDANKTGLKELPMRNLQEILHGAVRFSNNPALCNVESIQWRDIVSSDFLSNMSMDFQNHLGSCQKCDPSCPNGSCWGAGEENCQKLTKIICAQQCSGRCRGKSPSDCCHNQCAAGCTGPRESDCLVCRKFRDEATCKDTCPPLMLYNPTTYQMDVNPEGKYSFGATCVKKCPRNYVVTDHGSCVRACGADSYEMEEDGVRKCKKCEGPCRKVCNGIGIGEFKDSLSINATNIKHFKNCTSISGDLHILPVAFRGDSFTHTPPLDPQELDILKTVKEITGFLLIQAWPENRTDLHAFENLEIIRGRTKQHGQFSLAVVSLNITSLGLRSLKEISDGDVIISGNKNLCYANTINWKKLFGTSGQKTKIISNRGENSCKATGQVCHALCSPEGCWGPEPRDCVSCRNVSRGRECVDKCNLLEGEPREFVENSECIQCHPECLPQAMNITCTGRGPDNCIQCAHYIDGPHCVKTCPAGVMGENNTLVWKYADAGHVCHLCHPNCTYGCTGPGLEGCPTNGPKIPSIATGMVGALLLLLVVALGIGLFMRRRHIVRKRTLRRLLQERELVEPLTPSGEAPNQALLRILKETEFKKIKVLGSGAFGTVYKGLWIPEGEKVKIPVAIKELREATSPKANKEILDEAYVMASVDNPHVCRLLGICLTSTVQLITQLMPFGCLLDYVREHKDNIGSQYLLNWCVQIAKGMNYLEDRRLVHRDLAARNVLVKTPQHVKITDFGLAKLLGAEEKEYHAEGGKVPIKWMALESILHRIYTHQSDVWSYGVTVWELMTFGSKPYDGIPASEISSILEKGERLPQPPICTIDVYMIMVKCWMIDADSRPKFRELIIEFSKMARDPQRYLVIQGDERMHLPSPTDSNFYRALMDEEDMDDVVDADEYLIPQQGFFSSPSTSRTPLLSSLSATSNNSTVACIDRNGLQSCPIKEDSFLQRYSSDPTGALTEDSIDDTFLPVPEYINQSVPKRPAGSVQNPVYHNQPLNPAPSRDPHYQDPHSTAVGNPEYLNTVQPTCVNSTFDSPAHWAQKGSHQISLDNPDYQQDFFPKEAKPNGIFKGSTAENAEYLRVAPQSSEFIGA

EPHA5 (human) = EPHA5 (human) (UniProt P54756)
FGFR1 (human) = FGFR1 (human) (UniProt P11362)
[1] = system: FGFR3 (human), P22607 [G697C]
Chain of FGFR3 (human), P22607 [G697C] (P22607 whole entry G697C, looked up): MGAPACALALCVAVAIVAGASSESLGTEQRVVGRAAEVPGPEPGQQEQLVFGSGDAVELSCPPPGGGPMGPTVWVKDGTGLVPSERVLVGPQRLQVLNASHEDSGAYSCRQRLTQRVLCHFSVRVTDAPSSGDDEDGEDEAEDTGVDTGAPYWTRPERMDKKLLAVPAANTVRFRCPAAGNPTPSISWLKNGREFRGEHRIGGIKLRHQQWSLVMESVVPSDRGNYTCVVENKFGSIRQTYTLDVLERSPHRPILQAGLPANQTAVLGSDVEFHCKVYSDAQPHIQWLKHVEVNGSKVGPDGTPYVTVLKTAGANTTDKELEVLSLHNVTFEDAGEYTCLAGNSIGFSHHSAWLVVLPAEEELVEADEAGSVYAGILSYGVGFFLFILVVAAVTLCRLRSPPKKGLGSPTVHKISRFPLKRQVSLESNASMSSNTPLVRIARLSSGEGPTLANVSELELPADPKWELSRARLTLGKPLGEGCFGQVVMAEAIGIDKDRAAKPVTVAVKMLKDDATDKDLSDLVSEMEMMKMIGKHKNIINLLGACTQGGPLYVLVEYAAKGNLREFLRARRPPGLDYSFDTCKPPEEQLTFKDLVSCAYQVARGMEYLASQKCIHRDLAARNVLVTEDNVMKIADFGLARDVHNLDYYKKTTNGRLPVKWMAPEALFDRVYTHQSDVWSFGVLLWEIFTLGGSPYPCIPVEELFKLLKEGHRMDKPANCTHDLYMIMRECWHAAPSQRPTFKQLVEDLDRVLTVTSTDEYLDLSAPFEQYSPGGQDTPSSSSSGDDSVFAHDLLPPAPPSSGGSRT

FYN (human) = FYN (human) (UniProt P06241)
IKBKE (human) = IKBKE (human) (UniProt Q14164)
IRAK3 (human) = IRAK3 (human) (UniProt Q9Y616)
[2] = target: JAK3 JH1 catalytic (human) (UniProt P52333)
KIT (human) = KIT (human) (UniProt P10721)
Chain of KIT (human) (P10721 whole entry, looked up): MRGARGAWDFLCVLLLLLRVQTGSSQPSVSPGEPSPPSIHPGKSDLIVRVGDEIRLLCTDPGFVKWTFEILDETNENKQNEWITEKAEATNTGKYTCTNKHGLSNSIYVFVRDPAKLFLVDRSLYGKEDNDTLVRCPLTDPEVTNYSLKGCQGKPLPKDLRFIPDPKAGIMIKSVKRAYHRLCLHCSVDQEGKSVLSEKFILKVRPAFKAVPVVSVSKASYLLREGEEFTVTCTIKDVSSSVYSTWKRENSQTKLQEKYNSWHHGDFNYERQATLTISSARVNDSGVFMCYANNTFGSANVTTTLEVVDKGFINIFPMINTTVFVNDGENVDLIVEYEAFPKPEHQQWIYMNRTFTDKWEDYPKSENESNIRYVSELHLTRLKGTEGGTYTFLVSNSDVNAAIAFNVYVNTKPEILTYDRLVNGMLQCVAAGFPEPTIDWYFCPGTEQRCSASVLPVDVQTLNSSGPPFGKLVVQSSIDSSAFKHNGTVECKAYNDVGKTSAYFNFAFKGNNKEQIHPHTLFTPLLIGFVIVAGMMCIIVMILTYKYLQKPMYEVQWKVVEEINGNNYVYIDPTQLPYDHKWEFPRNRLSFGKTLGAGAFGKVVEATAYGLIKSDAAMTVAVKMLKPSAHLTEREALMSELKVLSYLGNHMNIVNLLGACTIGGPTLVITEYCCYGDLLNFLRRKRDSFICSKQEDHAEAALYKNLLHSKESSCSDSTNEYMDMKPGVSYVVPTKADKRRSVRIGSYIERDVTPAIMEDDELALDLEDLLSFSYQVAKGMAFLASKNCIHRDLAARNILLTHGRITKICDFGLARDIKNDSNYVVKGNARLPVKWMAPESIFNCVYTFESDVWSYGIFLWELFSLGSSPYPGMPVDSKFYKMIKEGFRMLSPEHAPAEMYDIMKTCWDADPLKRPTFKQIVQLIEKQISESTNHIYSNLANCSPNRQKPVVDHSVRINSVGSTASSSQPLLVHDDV

LIMK1 (human) = LIMK1 (human) (UniProt P53667)
MAP2K5 (human) = MAP2K5 (human) (UniProt Q13163)
MAPK15 (human) = MAPK15 (human) (UniProt Q8TD08)
Chain of MAPK15 (human) (Q8TD08 whole entry, looked up): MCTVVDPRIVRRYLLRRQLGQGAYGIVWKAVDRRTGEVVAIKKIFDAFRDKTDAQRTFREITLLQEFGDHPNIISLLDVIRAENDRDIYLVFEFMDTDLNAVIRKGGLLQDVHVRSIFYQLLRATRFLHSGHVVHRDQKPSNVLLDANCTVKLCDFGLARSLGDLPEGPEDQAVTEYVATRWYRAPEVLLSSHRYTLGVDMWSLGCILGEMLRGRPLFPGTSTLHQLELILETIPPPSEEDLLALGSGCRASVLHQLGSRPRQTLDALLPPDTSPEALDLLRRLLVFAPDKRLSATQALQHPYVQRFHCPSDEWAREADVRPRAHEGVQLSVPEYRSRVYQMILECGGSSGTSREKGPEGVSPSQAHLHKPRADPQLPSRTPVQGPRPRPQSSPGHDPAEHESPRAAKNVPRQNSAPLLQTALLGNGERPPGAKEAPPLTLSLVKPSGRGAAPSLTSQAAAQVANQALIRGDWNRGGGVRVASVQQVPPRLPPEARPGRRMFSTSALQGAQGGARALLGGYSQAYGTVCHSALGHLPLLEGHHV

MINK1 (human) = MINK1 (human) (UniProt Q8N4C8)
MYO3B (human) = MYO3B (human) (UniProt Q8WXR4)
PAK2 (human) = PAK2 (human) (UniProt Q13177)
PIK3C2B (human) = PIK3C2B (human) (UniProt O00750)
[3] = system: PIK3CA (human), P42336 [M1043I]
PIP4K2C (human) = PIP4K2C (human) (UniProt Q8TBX8)
PKN2 (human) = PKN2 (human) (UniProt Q16513)
PRKACB (human) = PRKACB (human) (UniProt P22694)
PTK6 (human) = PTK6 (human) (UniProt Q13882)
RPS6KA4 KD2 (human) = RPS6KA4 KD2 (human) (UniProt O75676)
RPS6KA6 KD1 (human) = RPS6KA6 KD1 (human) (UniProt Q9UK32)
Chain of RPS6KA6 KD1 (human) (Q9UK32 whole entry, looked up): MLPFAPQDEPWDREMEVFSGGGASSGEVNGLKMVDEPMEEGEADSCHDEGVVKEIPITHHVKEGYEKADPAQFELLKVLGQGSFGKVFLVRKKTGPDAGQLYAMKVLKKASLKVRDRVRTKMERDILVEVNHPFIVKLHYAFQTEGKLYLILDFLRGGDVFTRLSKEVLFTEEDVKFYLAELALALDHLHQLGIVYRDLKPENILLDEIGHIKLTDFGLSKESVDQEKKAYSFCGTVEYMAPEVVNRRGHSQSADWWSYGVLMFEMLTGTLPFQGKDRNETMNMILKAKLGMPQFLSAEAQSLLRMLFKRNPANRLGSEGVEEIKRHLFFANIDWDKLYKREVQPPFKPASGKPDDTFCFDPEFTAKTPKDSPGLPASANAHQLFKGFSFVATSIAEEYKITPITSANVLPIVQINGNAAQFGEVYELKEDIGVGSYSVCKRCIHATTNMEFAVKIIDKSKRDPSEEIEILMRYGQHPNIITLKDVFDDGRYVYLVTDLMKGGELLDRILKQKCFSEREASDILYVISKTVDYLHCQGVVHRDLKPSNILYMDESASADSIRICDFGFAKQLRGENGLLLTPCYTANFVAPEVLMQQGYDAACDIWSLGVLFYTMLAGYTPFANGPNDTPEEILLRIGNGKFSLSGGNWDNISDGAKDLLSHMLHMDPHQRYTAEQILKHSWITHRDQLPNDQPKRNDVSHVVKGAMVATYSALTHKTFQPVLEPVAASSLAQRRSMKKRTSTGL

SRMS (human) = SRMS (human) (UniProt Q9H3Y6)
TLK1 (human) = TLK1 (human) (UniProt Q9UKI8)
TNK1 (human) = TNK1 (human) (UniProt Q13470)
TNNI3K (human) = TNNI3K (human) (UniProt Q59H18)
VRK2 (human) = VRK2 (human) (UniProt Q86Y07)
WEE2 (human) = WEE2 (human) (UniProt P0C1S8)
ZAP70 (human) = ZAP70 (human) (UniProt P43403)

Chain of BTK (human) (Q06187 whole entry, looked up): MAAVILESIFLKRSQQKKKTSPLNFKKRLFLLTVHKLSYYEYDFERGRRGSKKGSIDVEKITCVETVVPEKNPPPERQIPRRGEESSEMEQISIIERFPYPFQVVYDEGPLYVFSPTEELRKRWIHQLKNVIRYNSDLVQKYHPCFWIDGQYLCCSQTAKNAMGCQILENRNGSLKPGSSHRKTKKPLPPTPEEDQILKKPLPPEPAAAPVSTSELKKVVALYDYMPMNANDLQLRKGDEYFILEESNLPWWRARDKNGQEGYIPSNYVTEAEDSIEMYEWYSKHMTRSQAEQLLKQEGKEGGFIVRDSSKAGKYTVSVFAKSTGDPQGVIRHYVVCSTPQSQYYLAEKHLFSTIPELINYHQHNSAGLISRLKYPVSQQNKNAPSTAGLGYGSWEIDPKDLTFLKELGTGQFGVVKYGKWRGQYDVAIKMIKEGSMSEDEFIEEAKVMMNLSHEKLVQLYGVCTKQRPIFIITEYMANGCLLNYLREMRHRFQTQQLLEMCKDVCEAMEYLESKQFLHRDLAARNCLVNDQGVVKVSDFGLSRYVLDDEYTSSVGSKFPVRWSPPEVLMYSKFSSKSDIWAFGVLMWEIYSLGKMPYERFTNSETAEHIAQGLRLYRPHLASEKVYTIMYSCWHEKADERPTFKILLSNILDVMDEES

| Structure (SMILES) | kinase still bound, per cent of control (ACVR2B (human)) [%] | kinase still bound, per cent of control (AKT2 (human)) [%] | kinase still bound, per cent of control (AKT3 (human)) [%] | kinase still bound, per cent of control (BTK (human)) [%] | kinase still bound, per cent of control (CASK (human)) [%] | kinase still bound, per cent of control (CDK15 (human)) [%] | kinase still bound, per cent of control (CDKL5 (human)) [%] | kinase still bound, per cent of control (CSK (human)) [%] | kinase still bound, per cent of control (CSNK1D (human)) [%] | kinase still bound, per cent of control (DMPK (human)) [%] | kinase still bound, per cent of control (EGFR (human)) [%] | kinase still bound, per cent of control (EPHA5 (human)) [%] | kinase still bound, per cent of control (FGFR1 (human)) [%] | kinase still bound, per cent of control [1] [%] | kinase still bound, per cent of control (FYN (human)) [%] | kinase still bound, per cent of control (IKBKE (human)) [%] | kinase still bound, per cent of control (IRAK3 (human)) [%] | kinase still bound, per cent of control [2] [%] | kinase still bound, per cent of control (KIT (human)) [%] | kinase still bound, per cent of control (LIMK1 (human)) [%] | other results |
| --- | --- | --- | --- | --- | --- | --- | --- | --- | --- | --- | --- | --- | --- | --- | --- | --- | --- | --- | --- | --- | --- |
| N#Cc1cc(-c2ccnc(Nc3ccc(-n4cnc(-c5cccnc5)n4)cc3)n2)cc(N2CCOCC2)c1 | 49 | 100 | 100 | 74 | 78 | 55 | 7 | 66 | 86 | 85 | 71 | 91 | 93 | 90 | 83 | 37 | 12 | 2.2 | 0.65 | 62 | kinase still bound, per cent of control (MAP2K5 (human)): 8.6%; kinase still bound, per cent of control (MAPK15 (human)): 2%; kinase still bound, per cent of control (MINK1 (human)): 31%; kinase still bound, per cent of control (MYO3B (human)): 100%; kinase still bound, per cent of control (PAK2 (human)): 72%; kinase still bound, per cent of control (PIK3C2B (human)): 76%; kinase still bound, per cent of control [3]: 100%; kinase still bound, per cent of control (PIP4K2C (human)): 2.8%; kinase still bound, per cent of control (PKN2 (human)): 44%; kinase still bound, per cent of control (PRKACB (human)): 100%; kinase still bound, per cent of control (PTK6 (human)): 100%; kinase still bound, per cent of control (RPS6KA4 KD2 (human)): 100%; kinase still bound, per cent of control (RPS6KA6 KD1 (human)): 60%; kinase still bound, per cent of control (SRMS (human)): 62%; kinase still bound, per cent of control (TLK1 (human)): 39%; kinase still bound, per cent of control (TNK1 (human)): 25%; kinase still bound, per cent of control (TNNI3K (human)): 80%; kinase still bound, per cent of control (VRK2 (human)): 100%; kinase still bound, per cent of control (WEE2 (human)): 100%; kinase still bound, per cent of control (ZAP70 (human)): 70% |
| CCCS(=O)(=O)Nc1ccc(F)c(C(=O)c2c[nH]c3ncc(Cl)cc23)c1F | 28 | 68 | 100 | 52 | 51 | 100 | 92 | 2.7 | 91 | 100 | 76 | 100 | 34 | 100 | 11 | 91 | 26 | 24 | 0.1 | 46 | kinase still bound, per cent of control (MAP2K5 (human)): 0.15%; kinase still bound, per cent of control (MAPK15 (human)): 97%; kinase still bound, per cent of control (MINK1 (human)): 28%; kinase still bound, per cent of control (MYO3B (human)): 47%; kinase still bound, per cent of control (PAK2 (human)): 37%; kinase still bound, per cent of control (PIK3C2B (human)): 84%; kinase still bound, per cent of control [3]: 76%; kinase still bound, per cent of control (PIP4K2C (human)): 100%; kinase still bound, per cent of control (PKN2 (human)): 100%; kinase still bound, per cent of control (PRKACB (human)): 100%; kinase still bound, per cent of control (PTK6 (human)): 0.5%; kinase still bound, per cent of control (RPS6KA4 KD2 (human)): 69%; kinase still bound, per cent of control (RPS6KA6 KD1 (human)): 80%; kinase still bound, per cent of control (SRMS (human)): 0.05%; kinase still bound, per cent of control (TLK1 (human)): 58%; kinase still bound, per cent of control (TNK1 (human)): 96%; kinase still bound, per cent of control (TNNI3K (human)): 75%; kinase still bound, per cent of control (VRK2 (human)): 77%; kinase still bound, per cent of control (WEE2 (human)): 100%; kinase still bound, per cent of control (ZAP70 (human)): 85% |
